In PubChem BioAssay (NCI):
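Compound exposure: 48 hours, 5 concentrations, 96-well plates. The concentration for 50% growth inhibition is given as GI50. TGI is the concentration that stops growth completely.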

Columns and labels:
Assay in all cases: NCI tumour cell line growth inhibition, 48 h
CAKI-1 renal = test system: CAKI-1 renal
MALME-3M melanoma = test system: MALME-3M melanoma
NCI-H226 lung = test system: NCI-H226 lung
SK-MEL-28 melanoma = test system: SK-MEL-28 melanoma
SK-OV-3 ovarian = test system: SK-OV-3 ovarian
SF-295 CNS = test system: SF-295 CNS
SK-MEL-2 melanoma = test system: SK-MEL-2 melanoma
SR leukemia = test system: SR leukemia
HCT-15 colon = test system: HCT-15 colon
HT29 colon = test system: HT29 colon

| Compound | GI50 (CAKI-1 renal) | TGI (CAKI-1 renal) | GI50 (MALME-3M melanoma) | TGI (MALME-3M melanoma) | GI50 (NCI-H226 lung) | TGI (NCI-H226 lung) | GI50 (SK-MEL-28 melanoma) | TGI (SK-MEL-28 melanoma) | GI50 (SK-OV-3 ovarian) | TGI (SK-OV-3 ovarian) | GI50 (SF-295 CNS) | TGI (SF-295 CNS) | GI50 (SK-MEL-2 melanoma) | TGI (SK-MEL-2 melanoma) | GI50 (SR leukemia) | TGI (SR leukemia) | GI50 (HCT-15 colon) | TGI (HCT-15 colon) | TGI (HT29 colon) | GI50 (HT29 colon) |
| --- | --- | --- | --- | --- | --- | --- | --- | --- | --- | --- | --- | --- | --- | --- | --- | --- | --- | --- | --- | --- |
| Oc1ccc(CCNc2nc3ccccc3c3[nH]c4ccccc4c23)cc1 | 1.59 µM | 3.76 µM | 1.79 µM | 3.46 µM | 2.65 µM | 7.3 µM | 1.61 µM | 2.98 µM | 13.7 µM | 27 µM | 1.38 µM | 2.87 µM | 1.73 µM | 3.36 µM | 1.48 µM | > 100 µM | 1.16 µM | 2.93 µM |  |  |
| O=C(Nc1ccccc1)Oc1ccccc1C1CCCCC1 |  |  |  | 57.1 µM |  | 37.6 µM |  | 58.1 µM |  | > 100 µM |  | 51.2 µM |  |  |  | 55.7 µM |  | 40.9 µM | 51.6 µM |  |
| CCn1c(SC)nnc1-c1cc2c([nH]c3ccccc32)c(-c2cccc(O)c2)n1 |  |  | 1.37 µM | 9.58 µM | 1.91 µM | 4.9 µM | 2.69 µM | 21 µM | 2.44 µM | 6.3 µM | 1.83 µM | 5.23 µM | 1.88 µM | 7.6 µM | 0.34 µM | > 100 µM | 0.95 µM | 51.6 µM | 12.5 µM | 3.41 µM |
| NC1CC(n2ccc(=O)[nH]c2=O)OC1C(O)CO (stereo not drawn) |  |  |  | > 100 µM |  | > 100 µM |  | > 100 µM |  | > 100 µM |  | > 100 µM |  | > 100 µM |  | > 100 µM |  | > 100 µM | > 100 µM |  |
| CCOC(=O)Oc1ccc2[nH]c3c(C)cc(N)c(C)c3c2c1 |  | > 100 µM |  | > 100 µM |  | > 100 µM |  | > 100 µM |  |  |  | > 100 µM |  | > 100 µM |  | > 100 µM |  | > 100 µM | > 100 µM |  |
| CCOC(=O)/C(=C/c1ccc[nH]1)P(=O)(OCC)OCC |  | > 100 µM |  | > 100 µM |  | > 100 µM |  | > 100 µM |  | > 100 µM |  | > 100 µM |  | > 100 µM |  | > 100 µM |  |  | > 100 µM |  |
| COc1cc([C@H]2c3cc(O)c(OC)cc3C[C@]3(O)[C@@H]2CO[C@@H]3O)ccc1O |  | > 100 µM |  |  |  | > 100 µM |  | > 100 µM |  | > 100 µM |  | > 100 µM |  | > 100 µM |  | > 100 µM |  | > 100 µM | > 100 µM |  |
| Cc1cccc2c1Oc1ncccc1C2NC(=O)CN(C)C (stereo not drawn) |  |  |  | > 10 µM |  | > 10 µM |  |  |  | > 10 µM |  | > 10 µM |  | > 10 µM |  | > 10 µM |  | > 10 µM | > 10 µM |  |
